tested on: EV71 virus strain Shenzhen/120F1/09; assay: EV71 in-vitro cytopathic effect (CPE) test; format: cell-based, RD cells of human rhabdomyoma; settings: Enterovirus A, 72 h; RD cells, EV71 100 TCID50, 3 days, CCK8 readout; read-out: EC50 by EC71 CPE test, EV71
Description: Test of EV71 In-Vitro Cytopathic Effect (CPE) To test the in-vitro antiviral activity and cytotoxicity of a compound to HFMD virus EV71 by means of cytopathic effect (CPE) test. […] Cell line: RD cells of human rhabdomyoma • 3. Cell culture media: DMEM medium added with 10% serum, Penicillin/Streptomycin and L-[…]×) • 4. […] Cell inoculation: digest off the RD cells from the attached state, then dilute them with culture medium to a density of 80000/ml and inoculate 100 μl into the micro wells the 96-well plate. • 2. Dilution of compound: • Step 1: prepare the dry powder of a compound to test into a 10 mM solution in DMSO. Then dilute the compound by three times to eight concentration points. Dilute the reference compounds with the same method. • Step 2: further dilute the diluted solution of the compound in DMSO with cell culture medium. Add 10 μl DMSO solution for each well into 240 μl culture medium. • 3. Add the diluted compound solution by 50 μl each well into the 96-well plate inoculated with cells (double holes, final concentration of DMSO is 1%). • 4. Dilution of virus: dilute EV71 virus solution by 10000 times to a concentration of 100 TCID50/50 μl/. Add the diluted virus solution by 50 μl each well into the 96-well plate. Prepare another 96-well plate to replace the virus with culture medium and similarly inoculate the cells. Add the compound to test the toxicity of compound on cells. • 5. Cultivate the 96-well plate 3 days at the conditions of 37° C. and 5% CO2. • 6. EC50 and CC50 tests: add the cellular activity test reagent CCK8 into the micro-wells by 20 μl/well. Use ELIASA to read the absorbancy at the wavelength of 450 nm and 630 nm. • 7.

First: CCO/N=C/c1ccc(OCCCCCN2CCN(c3ccnc(N(C)C)c3)S2(=O)=O)cc1 [Embodiment 43, (E)-4-((5-(5-(2-(dimethylamino)-pyridin-4-yl)-1,1-dioxide-1,2,5-thiadiazolidine-2-yl)-pentyl)-oxy)-benzaldehyde-O-ethyl ketoxime]
Second: CC(C)O/N=C/c1ccc(OCCCCCN2CCN(c3ccnc(N)c3)S2(=O)=O)cc1 [Embodiment 53, (E)-4-((5-(5-(2-amino-pyridin-4-yl)-1,1-dioxide-1,2,5-thiadiazolidine-2-yl)-pentyl)-oxy)-benzaldehyde-O-isopropyl oxime]
The EC50 of the first is higher: 0.1 to 0.5 µM for the first, < 0.05 µM for the second.

First: CCO/N=C/c1ccc(OCCCCCN2CCN(c3ccc(C#N)cc3)S2(=O)=O)cc1 [Embodiment 44]
Second: Nc1cc(N2CCN(CCCCCOc3ccc(/C=N/OCC4CC4)cc3)S2(=O)=O)ccn1 [Embodiment 52]
The EC50 of the first is higher: 0.05 to 0.1 µM for the first, < 0.05 µM for the second. The second is the more potent here.

`CCO/N=C1\CCc2cc(OCCCCCN3CCN(c4ccsc4)S3(=O)=O)ccc21` [Embodiment 46, (E)-2-(5-((1-(ethoxy-imino)-2,3-dihydro-1H-inden-5-yl)-oxy)-pentyl)-5-(thiophen-3-yl)-1,2,5-thiadiazolidine-1,1-dioxide] and `CCO/N=C1\CCc2cc(OCCCCCN3CCN(c4ccnnc4)S3(=O)=O)ccc21` [Embodiment 70] fall in the same range of EC50: 0.1 to 0.5 µM for the first, 0.1 to 0.5 µM for the second.

Compared with `CCO/N=C1\CCc2cc(OCCCCCN3CCN(c4ccc(N)nc4)S3(=O)=O)ccc21` [Embodiment 47], `CCO/N=C1\CCc2cc(OCCCCCN3CCN(c4cc(N)ncc4F)S3(=O)=O)ccc21` [Embodiment 49, (E)-2-(2-amino-5-fluoro-pyridin-4-yl)-5-(5-((1-(ethoxy-imino)-2,3-dihydro-1H-indene-5-yl)-oxy)-pentyl)-1,2,5-thiadiazolidine-1,1-dioxide] is lower in EC50: 0.5 to 1 µM for the first, 0.1 to 0.5 µM for the second. The second is the more potent here.

First: CCO/N=C1\CCc2cc(OCCCCCN3CCN(c4ccnc(N)c4F)S3(=O)=O)ccc21 [Embodiment 48, (E)-2-(2-amino-3-fluoropyridin-4-yl)-5-(5-((1-(ethoxy-imino)-2,3-dihydro-1H-indene-5-yl)-oxy)-pentyl)-1,2,5-thiadiazolidine-1,1-dioxide]
Second: CCO/N=C1\CCc2cc(OCCCCCN3CCN(c4ccnc(NC)c4)S3(=O)=O)ccc21 [Embodiment 50, (E)-2-(5-((1-(ethoxy-imino)-2,3-dihydro-1H-inden-5-yl)-oxy)-pentyl)-5-(2-(methylamino)-pyridin-4-yl)-1,2-thiadiazolidine-1,1-dioxide]
The EC50 of the first is higher: 0.1 to 0.5 µM for the first, < 0.05 µM for the second. The second is the more potent here.

Compared with `CCO/N=C1\CCc2cc(OCCCCCN3CCN(c4ccnc(NCCO)c4)S3(=O)=O)ccc21` [Embodiment 51, (E)-2-(5-((1-(ethoxy-imino)-2,3-dihydro-1H-inden-5-yl)-oxy)-pentyl)-5-(2-((2-hydroxyethyl)-amino)-pyridin-4-yl)-1,2,5-thiadiazolidine-1,1-dioxide], `CCO/N=C1\CCCc2cc(OCCCCCN3CCN(c4ccnc(N)c4)S3(=O)=O)ccc21` [Embodiment 65] is higher in EC50: < 0.05 µM for the first, 0.1 to 0.5 µM for the second.

First: CCO/N=C(\CC)c1ccc(OCCCCCN2CCN(c3ccnc(N)c3)S2(=O)=O)cc1 [Embodiment 54, (E)-2-(2-amino-pyridin-4-yl)-5-(5-(4-(1-(ethoxyimino)-propyl)-phenoxy)-pentyl)-1,2,5-thiadiazolidine-1,1-dioxide]
Second: CCO/N=C/c1ccc(OCCCCCN2CCN(c3ccnc(N)c3)S2(=O)=O)cn1 [Embodiment 56, (E)-5-((5-(5-(2-amino-pyridin-4-yl)-1,1-dioxide-1,2,5-thiadiazolidine-2-yl)-pentyl)-oxy)-picolinaldehyde-O-ethyl ketoxime]
The EC50 of the first is higher: 0.5 to 1 µM for the first, 0.05 to 0.1 µM for the second.

Compared with `CCO/N=C/c1ccc(OCCOCCN2CCN(c3ccnc(N)c3)S2(=O)=O)cc1` [Embodiment 55], `Cc1nc(-c2ccc(OCCCCCN3CCN(c4ccnc(N)c4)S3(=O)=O)cc2)no1` [Embodiment 69] is lower in EC50: 0.1 to 0.5 µM for the first, < 0.05 µM for the second.

`CC(C)O/N=C1\CCc2cc(OCCCCCN3CCN(c4ccnc(N)c4)S3(=O)=O)ccc21` [Embodiment 58] and `CCO/N=C1\CCc2cc(OCCCCCN3CCN(c4ccnc(N)c4)S3(=O)=O)cc(F)c21` [Embodiment 59] cannot be ordered by EC50: < 0.05 µM for the first, < 0.05 µM for the second.

`CC(C)n1nnc(-c2ccc(OCCCCCN3CCN(c4ccnc(N)c4)S3(=O)=O)cc2)n1` [Embodiment 60] and `Cn1nnc(-c2ccc(OCCCCCN3CCN(c4ccnc(N)c4)S3(=O)=O)cc2)n1` [Embodiment 61, 2-(2-amino-pyridin-4-yl)-5-(5-(4-(2-methyl-2H-tetrazol-5-yl)-phenoxy)-pentyl)-1,2,5-thiadiazolidine-1,1-dioxide] cannot be ordered by EC50: < 0.05 µM for the first, < 0.05 µM for the second.

First: CCc1noc2cc(OCCCCCN3CCN(c4ccnc(N)c4)S3(=O)=O)ccc12 [Embodiment 62, 2-(2-amino-pyridin-4-yl)-5-(5-((3-ethyl-benzo[d]isoxazol-6-yl)-oxy)-pentyl)-1,2,5-thiadiazolidine-1,1-dioxide]
Second: CCCc1nc2ccc(OCCCCCN3CCN(c4ccnc(N)c4)S3(=O)=O)cc2o1 [Embodiment 66, 2-(2-amino-pyridin-4-yl)-5-(5-((2-propyl-benzo[d]oxazole-6-yl)-oxy)-pentyl)-1,2,5-thiadiazolidine-1,1-dioxide]
The EC50 of the first is higher: 0.1 to 0.5 µM for the first, 0.05 to 0.1 µM for the second.

First: CCc1nnc(-c2ccc(OCCCCCN3CCN(c4ccnc(N)c4)S3(=O)=O)cc2)o1 [Embodiment 63, 4-(5-(5-(4-(5-ethyl-1,3,4-oxadiazol-2-yl)-phenoxy)-pentyl)-1,1-dioxo-1,2,5-thiadiazolidine-2-yl)-pyridin-2-amine]
Second: CCc1cc(-c2ccc(OCCCCCN3CCN(c4ccnc(N)c4)S3(=O)=O)cc2)no1 [Embodiment 67, 2-(2-amino-pyridin-4-yl)-5-(5-(4-(5-ethylisoxazole-3-yl)-phenoxy)-pentyl)-1,2,5-thiadiazolidine-1,1-dioxide]
The EC50 of the first is higher: 0.1 to 0.5 µM for the first, < 0.05 µM for the second.

`CCn1ncc(-c2ccc(OCCCCCN3CCN(c4ccnc(N)c4)S3(=O)=O)cc2)n1` [Embodiment 64, 2-(2-amino-pyridin-4-yl)-5-(5-(4-(2-ethyl-2H-1,2,3-triazol-4-yl)-phenoxy)-pentyl)-1,2,5-thiadiazolidine-1,1-dioxide] and `CCn1nnc(-c2ccc(OCCCCCN3CCN(c4ccnc(N)c4)S3(=O)=O)nc2)n1` [Embodiment 74, 4-(5-(5-((5-(2-ethyl-tetrazol-5-yl)-2-pyridinyl)-oxy)-pentyl)-1,1-dioxo-1,2,5-thiadiazolidine-2-yl)-pyridin-2-amine] cannot be ordered by EC50: < 0.05 µM for the first, < 0.05 µM for the second.

First: Nc1cc(N2CCN(CCCCCOc3ccc(-c4noc(C(F)(F)F)n4)cc3)S2(=O)=O)ccn1 [Embodiment 68, 2-(2-amino-pyridin-4-yl)-5-(5-(4-(5 (trifluoromethyl)-1,2,4-oxadiazol-3-yl)-phenoxy)-pentyl)-1,2,5-thiadiazolidine-1,1-dioxide]
Second: CCn1nnc(-c2ccc(OCCC(C)(C)CCN3CCN(c4ccnc(N)c4)S3(=O)=O)cc2)n1 [Embodiment 76, 4-(5-(5-(4-(2-ethyl-tetrazol-5-yl)-phenoxy)-3,3-dimethyl-pentyl)-1,1-dioxo-1,2,5-thiadiazolidine-2-yl)-pyridin-2-amine]
The EC50 of the first is higher: 0.5 to 1 µM for the first, < 0.05 µM for the second.

Compared with `CCOc1noc2cc(OCCC(O)CCN3CCN(c4ccncc4)S3(=O)=O)ccc12` (centres unmarked) [Embodiment 71, 2-(5-((3-ethoxy-benzo[d]isoxazole-6-yl)-oxy)-3-hydroxy-pentyl)-5-(pyridin-4-yl)-1,2,5-thiadiazolidine-1,1-dioxide], `CCOc1noc2cc(OCCC(F)CCN3CCN(c4ccncc4)S3(=O)=O)ccc12` (centres unmarked) [Embodiment 72, 2-(5-((3-ethoxy-benzo[d]isoxazole-6-yl)-oxy)-3-fluoro-pentyl)-5-(pyridin-4-yl)-1,2,5-thiadiazolidine-1,1-dioxide] is lower in EC50: 0.1 to 0.5 µM for the first, 0.05 to 0.1 µM for the second.

In the case of `CCn1nnc(-c2ccc(OCCC3(CCN4CCN(c5ccnc(N)c5)S4(=O)=O)CC3)cc2)n1` [Embodiment 73, 2-(2-amino-pyridin-4-yl)-5-(2-(1-(2-(4-(2-ethyl-2H-tetrazol-5-yl)-phenoxy)-ethyl)-cyclic propyl)-ethyl)-1,2,5-thiadiazolidine-1,1-dioxide], the EC50 is reported as < 0.05 µM.

same assay, conditions: RD cells, EV71 100 TCID50, 3 days, CCK8 readout; read-out: EC50 by EC71 CPE test, EV71

“(S,E)-2-(2-aminopyridin-4-yl)-5-(5-((1-(ethoxy-imino)-2,3-dihydro-1H-inden-5-yl)-oxy)-3-methylpentyl)-1,2,5-thiadiazolidine-1,1-dioxide and (R,E)-2-(2-aminopyridin-4-yl)-5-(5-((1-(ethoxy-imino)-2,3-dihydro-1H-inden-5-yl)-oxy)-3-methylpentyl)-1,2,5-thiadiazolidine-1,1-dioxide [Embodiment 29]” was tested, and the EC50 was < 0.05 µM.
